Results from US10093675B2, “6,8-disubstituted-9-(heterocyclyl)purines, compositions containing these derivatives and their use in cosmetic and medicinal applications” (USTAV EXPERIMENTALNI BOTANIKY AV CR, V.V.I., priority 2014, dated 2018).

Experiments:
[1] = test system: excised wheat leaf tips (Triticum aestivum cv. Hereward); assay: Senescence inhibition on winter wheat leaf segments (retention of chlorophyll); format: in vivo; details: 10^−4 mol/L; 96 hours in the dark; activity of kinetin set at 100%
Procedure: Seeds of winter wheat, Triticum aestivum cv. Hereward, were washed under running water for 24 hours and then sown on vermiculite soaked with Knop's solution. They were placed in the grown chamber at 25° C. with a 16/8 hours light period at […]. After 7 days, the first leaf was fully developed and the second leaf had started to grow. A tip section of the first leaf, approximately 35 mm long, was removed from 5 seedlings and trimmed slightly to a combined weight of 100 mg. The basal ends of the five leaf tips were placed in the wells of a microtiter polystyrene plate containing […] of a cytokinin solution each. The entire plate was inserted into a plastic box lined with paper tissues soaked in distilled water to prevent leaf sections from drying out. After 96 hours incubation in the dark at 25° C., the leaves were removed and chlorophyll extracted by heating at 80 C for 10 min in 5 ml of 80% ethanol (v/v). The sample volume was then restored to 5 ml by the addition of 80% ethanol (v/v). The absorbance of the extract was recorded at 665 nm. In addition, chlorophyll extracts from fresh leaves and leaf tips incubated in deionized water were measured. From the obtained data, the concentration with highest activity was selected for each compound tested. Relative activity of the compound at this concentration was calculated (see Table 6 below). The activity obtained for 10^−4 M kinetin (Kin) was set as 100%. The values shown are means of five replicates and the whole experiment was repeated twice.
The compounds to be tested were dissolved in dimethylsulfoxide (DMSO) and the solution brought up to 10^−3 M with distilled water. […] As summarized in Table 6 below, the presence of C-8 substitutent was beneficial and led to increase of antisenescent properties.

[2] = test system: human diploid fibroblasts (HDF cells; HDF25, HDF45, HDF80); assay: Inhibition of human cell aging: senescent cells by beta-galactosidase staining; format: cell-based; details: for SENESCENT CELLS (%) HDF25: human diploid fibroblasts passage 25, beta-galactosidase staining; for SENESCENT CELLS (%) HDF45: human diploid fibroblasts passage 45, beta-galactosidase staining; for SENESCENT CELLS (%) HDF80: human diploid fibroblasts passage 80, beta-galactosidase staining
Procedure: In this example, human diploid fibroblasts (HDF cells of various passage levels: passage 25—designated HDF25; passage 45—designated HDF45; passage 80—designated HDF80) were stained for beta-galactosidase activity. The medium used for the cell cultivation was removed the cells were washed twice in […], and fixed in 2-3 ml of fixing solution comprised of a 2% formaldehyde and 0.2% glutaraldehyde in PBS. The cells were incubated at room temperature for 5 minutes, and then washed twice with PBS. The cells were subsequently incubated at 37° C. […] In this experiment, senescent cells, but no other cells were stained blue due to the action of beta-galactosidase on the substrate.

[3] = test system: cytokinin-dependent tobacco callus Nicotiana tabacum L. cv. Wisconsin 38; assay: Plant cell division: growth of cytokinin-dependent tobacco callus; format: cell-based; details: for Activity (%); (s.d.): relative activity at concentration with highest activity, 10^−6 M kinetin set at 100%; for Concentration with highest activity (mol/l): tobacco callus fresh weight increase after four weeks, tested 10^−8 M to 10^−4 M
Procedure: Cytokinin-dependent tobacco callus Nicotiana tabacum L. cv. Wisconsin 38 was maintained at 25° C. in darkness on modified MS medium, containing 4 μmol/l nicotinic acid, 2.4 μmol/l pyridoxine hydrochloride, 1.2 μmol/l thiamine, 26.6 μmol/l glycine, 1.37 μmol/l glutamine, 1.8 μmol/l myo-inositol, 30 g/l of sucrose, 8 g/l of agar, 5.37 μmol/l NAA and 0.5 μmol/l BAP. Subcultivation was carried out every three weeks. Fourteen days before the bioassay, the callus tissue was transferred to the media without BAP. Biological activity was determined from the increase in fresh callus weight after four weeks of cultivation. Five replicates were prepared for each cytokinin concentration and the entire test was repeated twice. From the obtained data, the concentration with highest activity was selected for each compound tested. Relative activity at this concentration was calculated (see Table 17 below). The activity obtained for 10^−6 M kinetin (Kin) was set as 100%.
The cytokinins to be tested were dissolved in dimethylsulfoxide (DMSO) and the solution brought up to 10^−3M with distilled water.

[4] = test system: Salmonella typhimurium histidien auxotrophs TA98 and TA100; assay: Ames test; format: cell-based; details: 2.5 to 5000 μg/plate; presence and absence of Aroclor-induced rat liver S9
Procedure: A number of tests related to the safety of have been carried out using conventionally accepted protocols and procedures. The results of these studies are summarized herein. Tests were carried out using DMSO as solvent and dose levels of compound 21, 24, 26, 27, 39, 41, 45, 48, 50, 52, 53, 54, 55, 56, 63, 64, 66, 67, 68, 69, 70, 71, 72, 74, 76, 124, 125, 126, 127, 128, 129, 130, 145, 146, 147, 149, 150, 151, 208, 216, 218 a 243 at 2.5, 5.0, 15, 50, 500, 1500, and 5000 μg/plate based upon standard protocol and procedures (Ames et al., Mutation Research, 31, 347-364 (1975); Maron et al., Mutation Research, 113, 173-215 (1983)).

Row | Structure (SMILES) | Activity (%) (s.d.), retention of chlorophyll [1] | SENESCENT CELLS (%) HDF25 [2] | SENESCENT CELLS (%) HDF45 [2] | SENESCENT CELLS (%) HDF80 [2] | Activity (%); (s.d.) [3] | Concentration with highest activity (mol/l) [3] | mutagenic response [4]
1 | Oc1cccc(CNc2ncnc3c2nc(I)n3C2CCCO2)c1 (stereo not shown) [Compound 76] | 112 (±3) % | 3% | 4% | 15% | 114 (±3) % | 10^−6-10^−4 mol/l | no positive mutagenic responses
2 | Brc1nc2c(NCc3ccco3)ncnc2n1C1CCCO1 (stereo not shown) [Compound 72] | 106 (±2) % | 3% | 4% | 17% |  |  | no positive mutagenic responses
3 | CC(C)=CCNc1ncnc2c1nc(Br)n2C1CCCO1 (stereo not shown) [Compound 75] |  |  |  |  | 119 (±4) % | 10^−6-10^−4 mol/l | 
4 | C/C(=C\CNc1ncnc2c1nc(I)n2C1CCCCO1)CO (stereo not shown) [Compound 48] | 120 (±4) % | 2% | 4% | 21% |  |  | no positive mutagenic responses
5 | Oc1cccc(CNc2ncnc3c2nc(I)n3C2CCCCO2)c1 (stereo not shown) [Compound 53] | 125 (±6) % | 2% | 5% | 21% |  |  | no positive mutagenic responses
6 | Fc1cccc(CNc2ncnc3c2nc(I)n3C2CCCCO2)c1 (stereo not shown) [Compound 50] | 121 (±4) % | 3% | 4% | 19% |  |  | no positive mutagenic responses
7 | Ic1nc2c(NCc3ccco3)ncnc2n1C1CCCCO1 (stereo not shown) [Compound 45, 8-Iodo-6-furfurylamino-9-(tetrahydropyran-2-yl)-9H-purine] | 112 (±4) % | 3% | 5% | 20% |  |  | no positive mutagenic responses
8 | c1coc(CNc2ncnc3[nH]cnc23)c1 [kinetin, reference compound] | 100% | 3% | 5% | 38% |  |  | 
9 | Oc1cccc(CNc2ncnc3c2nc(Cl)n3C2CCCO2)c1 (stereo not shown) [Compound 70] | 126 (±1) % | 2% | 5% | 18% | 110 (±1) % | 10^−6-10^−4 mol/l | no positive mutagenic responses
10 | Oc1ccc(CNc2ncnc3c2nc(I)n3C2CCCCO2)cc1O (stereo not shown) [Compound 54] | 138 (±7) % | 3% | 5% | 20% |  |  | no positive mutagenic responses
11 | COc1ccc(CNc2ncnc3c2nc(Cl)n3C2CCCCO2)cc1OC (stereo not shown) [Compound 12] | 140 (±7) % |  |  |  |  |  | 
12 | OCCNc1nc2c(NCc3ccco3)ncnc2n1C1CCCCO1 (stereo not shown) [Compound 243, 6-furfurylamino-8-(2-hydroxyethylamino)-9-(tetrahydropyran-2-yl)-9H-purine] |  |  |  |  |  |  | no positive mutagenic responses
13 | COc1ccc(CNc2ncnc3c2nc(Br)n3C2CCCCO2)cc1OC (stereo not shown) [Compound 41] | 133 (±7) % | 2% | 6% | 21% |  |  | no positive mutagenic responses
14 | Clc1nc2c(NCc3ccco3)ncnc2n1C1CCCO1 (stereo not shown) [Compound 63] | 110 (±2) % | 2% | 4% | 19% |  |  | no positive mutagenic responses
15 | Fc1ccc(CNc2ncnc3c2nc(Cl)n3C2CCCCO2)cc1F (stereo not shown) [Compound 11] | 127 (±5) % |  |  |  |  |  | 
16 | Fc1ccc(CNc2ncnc3c2nc(I)n3C2CCCCO2)cc1F (stereo not shown) [Compound 55] | 133 (±5) % | 3% | 4% | 18% |  |  | no positive mutagenic responses
17 | COc1ccc(CNc2ncnc3c2nc(I)n3C2CCCCO2)cc1OC (stereo not shown) [Compound 56] | 141 (±8) % | 3% | 5% | 21% |  |  | no positive mutagenic responses
18 | Oc1ccc(CNc2ncnc3c2nc(Cl)n3C2CCCO2)cc1O (stereo not shown) [Compound 66] | 132 (±5) % | 2% | 4% | 16% |  |  | no positive mutagenic responses
19 | Fc1ccc(CNc2ncnc3c2nc(Cl)n3C2CCCO2)cc1F (stereo not shown) [Compound 67] | 128 (±6) % | 4% | 6% | 18% |  |  | no positive mutagenic responses
20 | COc1cccc(CNc2ncnc3c2nc(I)n3C2CCCCO2)c1 (stereo not shown) [Compound 52] | 120 (±3) % | 2% | 6% | 21% |  |  | no positive mutagenic responses
